Organism: Rattus norvegicus
Experiment: Open TG-GATES - Regimen: Single
Format: toxicity, organism-based, Sprague-Dawley
Parameters: regimen Single, gender Male, age 6 weeks
Details: in vivo, po, 1200 mg/kg, route gavage, dose level Middle; for APTT / Bas / Eos / Fbg / Hb / Ht / Lym / MCH / MCHC / MCV / Mono / Neu / PT / Plat / RBC / Ret / WBC: tissue Blood; for KIDNEY_L / KIDNEY_R / KIDNEY_TOTAL: tissue Kidney; for LIVER: tissue Liver; for A/G / ALP / ALT / AST / BUN / CRE / Ca / Cl / DBIL / GLC / IP / K / LDH / Na / PL / RALB / TBIL / TC / TG / TP / gamma-GTP: tissue Plasma

## CCO [ALCOHOL]
3 h
  TERMINAL_BW: 203.8 g
  APTT: 18.7 s
  Bas: 0%
  Eos: 1%
  Fbg: 200 mg/dL
  Hb: 13.2 g/dL
  Ht: 39.1%
  Lym: 72%
  MCH: 22.1 pg
  MCHC: 33.7%
  MCV: 65.5 fL
  Mono: 5.6%
  Neu: 21.6%
  PT: 12.4 s
  Plat: 108.6 x10_4/uL
  RBC: 596.8 x10_4/ul
  Ret: 8.1%
  WBC: 95.6 x10_2/uL
  KIDNEY_L: 0.9 g
  KIDNEY_R: 1 g
  KIDNEY_TOTAL: 1.9 g
  LIVER: 9.2 g
  A/G: 2.8
  ALP: 973.6 IU/L
  ALT: 38 IU/L
  AST: 69.8 IU/L
  BUN: 9 mg/dL
  CRE: 0.5 mg/dL
  Ca: 10.7 mg/dL
  Cl: 104.6 meq/L
  DBIL: 0.016 mg/dL
  GLC: 204.4 mg/dL
  IP: 8.9 mg/dL
  K: 4.5 meq/L
  LDH: 121.2 IU/L
  Na: 140 meq/L
  PL: 138 mg/dL
  RALB: 3.8 g/dL
  TBIL: 0.4 mg/dL
  TC: 74.8 mg/dL
  TG: 60.8 mg/dL
  TP: 5.2 g/dL
  gamma-GTP: 1.2 IU/L
6 h
  TERMINAL_BW: 203.8 g
  APTT: 17.5 s
  Bas: 0%
  Eos: 1.2%
  Fbg: 196.6 mg/dL
  Hb: 13.3 g/dL
  Ht: 39.9%
  Lym: 67%
  MCH: 21.7 pg
  MCHC: 33.3%
  MCV: 65 fL
  Mono: 12%
  Neu: 19.4%
  PT: 12.2 s
  Plat: 98.4 x10_4/uL
  RBC: 615.4 x10_4/ul
  Ret: 13.5%
  WBC: 87.4 x10_2/uL
  KIDNEY_L: 0.9 g
  KIDNEY_R: 1 g
  KIDNEY_TOTAL: 1.9 g
  LIVER: 9.2 g
  A/G: 2.4
  ALP: 827.2 IU/L
  ALT: 36 IU/L
  AST: 71 IU/L
  BUN: 11.4 mg/dL
  CRE: 0.5 mg/dL
  Ca: 10.5 mg/dL
  Cl: 105.2 meq/L
  DBIL: 0.066 mg/dL
  GLC: 203 mg/dL
  IP: 10.3 mg/dL
  K: 4.6 meq/L
  LDH: 87 IU/L
  Na: 140.8 meq/L
  PL: 132.4 mg/dL
  RALB: 3.8 g/dL
  TBIL: 0.4 mg/dL
  TC: 69.2 mg/dL
  TG: 59.4 mg/dL
  TP: 5.3 g/dL
  gamma-GTP: 1.8 IU/L
9 h
  TERMINAL_BW: 201.5 g
  APTT: 17.2 s
  Bas: 0%
  Eos: 1.6%
  Fbg: 204.2 mg/dL
  Hb: 13.5 g/dL
  Ht: 40.2%
  Lym: 73%
  MCH: 21.2 pg
  MCHC: 33.5%
  MCV: 63.3 fL
  Mono: 7.4%
  Neu: 18.2%
  PT: 12.1 s
  Plat: 114.7 x10_4/uL
  RBC: 635.8 x10_4/ul
  Ret: 9.9%
  WBC: 73.2 x10_2/uL
  KIDNEY_L: 0.9 g
  KIDNEY_R: 0.9 g
  KIDNEY_TOTAL: 1.9 g
  LIVER: 8.4 g
  A/G: 2.8
  ALP: 845 IU/L
  ALT: 28.8 IU/L
  AST: 61.6 IU/L
  BUN: 11 mg/dL
  CRE: 0.5 mg/dL
  Ca: 10.9 mg/dL
  Cl: 105.8 meq/L
  DBIL: 0.042 mg/dL
  GLC: 192 mg/dL
  IP: 10.7 mg/dL
  K: 4.7 meq/L
  LDH: 102 IU/L
  Na: 136.4 meq/L
  PL: 132.2 mg/dL
  RALB: 4.1 g/dL
  TBIL: 0.4 mg/dL
  TC: 71.6 mg/dL
  TG: 35 mg/dL
  TP: 5.6 g/dL
  gamma-GTP: 1.4 IU/L
24 h
  TERMINAL_BW: 217.4 g
  APTT: 17.6 s
  Bas: 0%
  Eos: 1.2%
  Fbg: 207.2 mg/dL
  Hb: 13.2 g/dL
  Ht: 39.2%
  Lym: 73.4%
  MCH: 21.8 pg
  MCHC: 33.6%
  MCV: 64.9 fL
  Mono: 9.2%
  Neu: 16.4%
  PT: 11.4 s
  Plat: 113.3 x10_4/uL
  RBC: 604.6 x10_4/ul
  Ret: 10.6%
  WBC: 106.7 x10_2/uL
  KIDNEY_L: 1 g
  KIDNEY_R: 1 g
  KIDNEY_TOTAL: 1.9 g
  LIVER: 10.5 g
  A/G: 2.6
  ALP: 909 IU/L
  ALT: 37.8 IU/L
  AST: 64.8 IU/L
  BUN: 21.2 mg/dL
  CRE: 0.5 mg/dL
  Ca: 11 mg/dL
  Cl: 103.6 meq/L
  DBIL: 0 mg/dL
  GLC: 188 mg/dL
  IP: 8.8 mg/dL
  K: 4.9 meq/L
  LDH: 109.8 IU/L
  Na: 138.8 meq/L
  PL: 159.4 mg/dL
  RALB: 4 g/dL
  TBIL: 0.3 mg/dL
  TC: 83.6 mg/dL
  TG: 101.8 mg/dL
  TP: 5.6 g/dL
  gamma-GTP: 1 IU/L

— ChEMBL document CHEMBL3885861, “Open TG-GATES”
